Measurements: PubChem BioAssay AID1963960 (Molecular Pharmacology Branch, DTP, NCI, 2024)
Several values for one entry are separate records, joined by “and”; a condition that tells them apart may be missing. Identical values can stand only once.

System: MDA-MB-468 spheroids with HUVEC/MSC, viability
Assay: Anticancer human tumor MDA-MB-468 cell line growth inhibition [PI3K];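 further: spheroids exposed to agents for seven days before readout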;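 on viability, T/C: 100% = DMSO vehicle control viability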
Details: for viability, T/C: stronger effect = lower value
In short: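 Tumor cells were combined with HUVEC and MSCs into spheroids, then dosed with PI3K-inhibitor combinations over half-log ranges capped near clinical Cmax or 10 microM.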

[1] = curve of first compound, second compound 0.00316 µM
[2] = curve of first compound, second compound 0.01 µM
[3] = curve of first compound, second compound 0.0316 µM
[4] = curve of first compound, second compound 0.1 µM
[5] = curve of first compound, second compound 0.316 µM
[6] = curve of first compound, second compound 1 µM
[7] = second compound 0.0316 µM, first compound 0.00949 µM
[8] = second compound 0.0316 µM, first compound 0.03 µM
[9] = second compound 0.0316 µM, first compound 0.0949 µM
[10] = second compound 0.0316 µM, first compound 0.3 µM
[11] = second compound 0.0316 µM, first compound 0.949 µM
[12] = second compound 0.0316 µM, first compound 3 µM
[13] = second compound 0.1 µM, first compound 0.00949 µM
[14] = second compound 0.1 µM, first compound 0.03 µM
[15] = second compound 0.1 µM, first compound 0.0949 µM
[16] = second compound 0.1 µM, first compound 0.3 µM
[17] = second compound 0.1 µM, first compound 0.949 µM
[18] = second compound 0.1 µM, first compound 3 µM
[19] = second compound 0.316 µM, first compound 0.00949 µM
[20] = second compound 0.316 µM, first compound 0.03 µM
[21] = second compound 0.316 µM, first compound 0.0949 µM
[22] = second compound 0.316 µM, first compound 0.3 µM
[23] = second compound 0.316 µM, first compound 0.949 µM
[24] = second compound 0.316 µM, first compound 3 µM
[25] = second compound 1 µM, first compound 0.00949 µM
[26] = second compound 1 µM, first compound 0.03 µM
[27] = second compound 1 µM, first compound 0.0949 µM
[28] = second compound 1 µM, first compound 0.3 µM
[29] = second compound 1 µM, first compound 0.949 µM
[30] = second compound 1 µM, first compound 3 µM

Cn1cnc2c(F)c(Nc3ccc(Br)cc3Cl)c(C(=O)NOCCO)cc21 + COc1c(OCCCN2CCOCC2)ccc2c3n(c(=NC(=O)c4cnc(N)nc4)nc12)CCN3
IC50 [1]: > 3000 nM | IC50 [2]: > 3000 nM | IC50 [3]: 1080 nM | IC50 [4]: 114 nM | IC50 [5]: < 9.49 nM | IC50 [6]: < 9.49 nM | viability, T/C (second compound 0.00316 µM, first compound 0.00949 µM): 80.8% | viability, T/C (second compound 0.00316 µM, first compound 0.03 µM): 88.8% | viability, T/C (second compound 0.00316 µM, first compound 0.0949 µM): 84.4% | viability, T/C (second compound 0.00316 µM, first compound 0.3 µM): 78.3% | viability, T/C (second compound 0.00316 µM, first compound 0.949 µM): 62.5% | viability, T/C (second compound 0.00316 µM, first compound 3 µM): 55.8% | viability, T/C (second compound 0.01 µM, first compound 0.00949 µM): 74.8% | viability, T/C (second compound 0.01 µM, first compound 0.03 µM): 76.6% | viability, T/C (second compound 0.01 µM, first compound 0.0949 µM): 81.1% | viability, T/C (second compound 0.01 µM, first compound 0.3 µM): 64.9% | viability, T/C (second compound 0.01 µM, first compound 0.949 µM): 60.6% | viability, T/C (second compound 0.01 µM, first compound 3 µM): 49.3% | viability, T/C [7]: 68% | viability, T/C [8]: 69.7% | viability, T/C [9]: 64.2% | viability, T/C [10]: 57.3% | viability, T/C [11]: 53.8% | viability, T/C [12]: 37.3% | viability, T/C [13]: 55.2% | viability, T/C [14]: 47.9% | viability, T/C [15]: 51.2% | viability, T/C [16]: 46.4% | viability, T/C [17]: 32.1% | viability, T/C [18]: 15.6% | viability, T/C [19]: 26.5% | viability, T/C [20]: 23.4% | viability, T/C [21]: 18.5% | viability, T/C [22]: 16.4% | viability, T/C [23]: 11.8% | viability, T/C [24]: 4.57% | viability, T/C [25]: 2.75% | viability, T/C [26]: 2.53% | viability, T/C [27]: 1.74% | viability, T/C [28]: 1.38% | viability, T/C [29]: 1.4% | viability, T/C [30]: 0.51%

C=CC(=O)N1CCN(c2nc(=O)n(-c3c(C)ccnc3C(C)C)c3nc(-c4c(O)cccc4F)c(F)cc23)C(C)C1 (stereo not drawn) + COc1c(OCCCN2CCOCC2)ccc2c3n(c(=NC(=O)c4cnc(N)nc4)nc12)CCN3
IC50 [1]: > 10000 nM | IC50 [2]: > 10000 nM | IC50 [3]: > 10000 nM | IC50 [4]: > 10000 nM | IC50 [5]: < 31.6 nM | IC50 [6]: < 31.6 nM | viability, T/C (second compound 0.00316 µM, first compound 0.0316 µM): 92% | viability, T/C (second compound 0.00316 µM, first compound 0.1 µM): 92.9% | viability, T/C (second compound 0.00316 µM, first compound 0.316 µM): 97.5% | viability, T/C (second compound 0.00316 µM, first compound 1 µM): 109% | viability, T/C (second compound 0.00316 µM, first compound 3.16 µM): 104% | viability, T/C (second compound 0.00316 µM, first compound 10 µM): 79.1% | viability, T/C (second compound 0.01 µM, first compound 0.0316 µM): 81.1% | viability, T/C (second compound 0.01 µM, first compound 0.1 µM): 80.5% | viability, T/C (second compound 0.01 µM, first compound 0.316 µM): 102% | viability, T/C (second compound 0.01 µM, first compound 1 µM): 97% | viability, T/C (second compound 0.01 µM, first compound 3.16 µM): 99.7% | viability, T/C (second compound 0.01 µM, first compound 10 µM): 70.1% | viability, T/C (second compound 0.0316 µM, first compound 0.0316 µM): 75.2% | viability, T/C (second compound 0.0316 µM, first compound 0.1 µM): 73.4% | viability, T/C (second compound 0.0316 µM, first compound 0.316 µM): 79.8% | viability, T/C (second compound 0.0316 µM, first compound 1 µM): 89.7% | viability, T/C (second compound 0.0316 µM, first compound 3.16 µM): 80.2% | viability, T/C (second compound 0.0316 µM, first compound 10 µM): 65% | viability, T/C (second compound 0.1 µM, first compound 0.0316 µM): 56.7% | viability, T/C (second compound 0.1 µM, first compound 0.1 µM): 58.4% | viability, T/C (second compound 0.1 µM, first compound 0.316 µM): 50.9% | viability, T/C (second compound 0.1 µM, first compound 1 µM): 63.1% | viability, T/C (second compound 0.1 µM, first compound 3.16 µM): 61.5% | viability, T/C (second compound 0.1 µM, first compound 10 µM): 41.3% | viability, T/C (second compound 0.316 µM, first compound 0.0316 µM): 29.9% | viability, T/C (second compound 0.316 µM, first compound 0.1 µM): 26.6% | viability, T/C (second compound 0.316 µM, first compound 0.316 µM): 27.8% | viability, T/C (second compound 0.316 µM, first compound 1 µM): 31.4% | viability, T/C (second compound 0.316 µM, first compound 3.16 µM): 28.2% | viability, T/C (second compound 0.316 µM, first compound 10 µM): 18.4% | viability, T/C (second compound 1 µM, first compound 0.0316 µM): 4.14% | viability, T/C (second compound 1 µM, first compound 0.1 µM): 3.02% | viability, T/C (second compound 1 µM, first compound 0.316 µM): 3.41% | viability, T/C (second compound 1 µM, first compound 1 µM): 3.9% | viability, T/C (second compound 1 µM, first compound 3.16 µM): 3.76% | viability, T/C (second compound 1 µM, first compound 10 µM): 2.73%

Cn1cnc2c(F)c(Nc3ccc(Br)cc3Cl)c(C(=O)NOCCO)cc21 + Cc1nc(NC(=O)N2CCCC2C(N)=O)sc1-c1ccnc(C(C)(C)C(F)(F)F)c1
IC50 [3]: > 3000 nM | IC50 [4]: 1810 nM | IC50 [5]: 949 nM | IC50 [6]: 385 nM | IC50 (curve of first compound, second compound 3.16 µM): 18.1 nM | IC50 (curve of first compound, second compound 10 µM): < 9.49 nM | viability, T/C [7]: 75.3% | viability, T/C [8]: 80% | viability, T/C [9]: 76.9% | viability, T/C [10]: 94.1% | viability, T/C [11]: 69.4% | viability, T/C [12]: 50.8% | viability, T/C [13]: 82.7% | viability, T/C [14]: 77.6% | viability, T/C [15]: 77.8% | viability, T/C [16]: 86.5% | viability, T/C [17]: 60.7% | viability, T/C [18]: 41.5% | viability, T/C [19]: 98.5% | viability, T/C [20]: 82.2% | viability, T/C [21]: 69.7% | viability, T/C [22]: 74.5% | viability, T/C [23]: 46.9% | viability, T/C [24]: 34.2% | viability, T/C [25]: 66.9% | viability, T/C [26]: 69.4% | viability, T/C [27]: 57.2% | viability, T/C [28]: 54.2% | viability, T/C [29]: 40.1% | viability, T/C [30]: 25.6% | viability, T/C (second compound 3.16 µM, first compound 0.00949 µM): 53.9% | viability, T/C (second compound 3.16 µM, first compound 0.03 µM): 47.8% | viability, T/C (second compound 3.16 µM, first compound 0.0949 µM): 37.5% | viability, T/C (second compound 3.16 µM, first compound 0.3 µM): 33.8% | viability, T/C (second compound 3.16 µM, first compound 0.949 µM): 21.2% | viability, T/C (second compound 3.16 µM, first compound 3 µM): 12.4% | viability, T/C (second compound 10 µM, first compound 0.00949 µM): 28.8% | viability, T/C (second compound 10 µM, first compound 0.03 µM): 14.7% | viability, T/C (second compound 10 µM, first compound 0.0949 µM): 15.8% | viability, T/C (second compound 10 µM, first compound 0.3 µM): 12.1% | viability, T/C (second compound 10 µM, first compound 0.949 µM): 7.32% | viability, T/C (second compound 10 µM, first compound 3 µM): 4.97%

CC(C)NCC(C(=O)N1CCN(c2ncnc3c2C(C)CC3O)CC1)c1ccc(Cl)cc1 (stereo not drawn)
viability, T/C (compound 0.0316 µM): 89.5% [middle of 4 runs] | viability, T/C (compound 0.1 µM): 81.3% [middle of 4 runs] | viability, T/C (compound 1 µM): 54.2% [middle of 4 runs] | viability, T/C (compound 3.16 µM): 32.4% [middle of 4 runs] | viability, T/C (compound 10 µM): 26.4% and 22.6% (2×) and 27% | IC50 (curve of compound): 1.29 µM [middle of 4 runs]

CC(C)n1nc(-c2ccc3oc(N)nc3c2)c2c(N)ncnc21
viability, T/C (compound 0.000316 µM): 101% [middle of 4 runs] | viability, T/C (compound 0.00316 µM): 93% [middle of 4 runs] | viability, T/C (compound 0.01 µM): 81.4% [middle of 4 runs] | viability, T/C (compound 0.0316 µM): 64.6% [middle of 4 runs] | viability, T/C (compound 0.1 µM): 19.3% [middle of 4 runs] | IC50 (curve of compound): 44.4 nM [middle of 4 runs]
